Data from patent US20240327364A1, “THERAPEUTIC TARGETING OF GPR68 TO INDUCE FERROPTOSIS” (University Of Maryland, Baltimore, priority 2023, published 2024).

Legend:
A2058 = test: Scratch assay; assay type: cell-based, human; details: 20 hours, OGM2 5 uM
WM115 = test: Scratch assay; assay type: cell-based, human; details: 20 hours, OGM2 5 uM
Experimental: (§1) Since there are numerous parallels are found between neural crest cells and cancer during migration, we examined whether OGM could inhibit the migration of cells in human melanoma cell lines (Oppitz et al., 2007; Schriek et al., 2005, Sinnberg et al., 2018). […] A2058. MeWo and WM115 cells were grown to confluence and a stripe of cells were denuded with a p200 pipette tip “scratch” and rinsed with PBS. Cells were treated with OGM or DMSO and incubated in low serum media. Imaging was done at 30 minutes after “scratch” and then 20 hours afterwards. Areas were then measured and normalized to the initial area.

MeWo = test: Scratch assay; assay type: cell-based, human; details: 20 hours, OGM2 5 uM
Experimental: as §1

HEK293 = assay type: cell-based; details: human
Text: FIG. 59A through FIG. 59D: OGM2 causes specific cell death in glioblastoma cells.
Thus, in contrast to erastin, OGM2 induces ferroptosis selectively in cancer cells.

endothelial cell (EC) = test: Acidification-induced endothelial cell dysfunction; assay type: cell-based; details: OGM2 3 uM; Ogerin 2 uM
Experimental: FIG. 34A through FIG. 34C: GPR68 plays a central role in acidification-induced endothelial cell (EC) dysfunction in vitro, and OGM2 abrogates EC dysfunction. […] These effects were abolished by OGM2 (OGM) at 3 uM and augmented by GPR68 positive allosteric modulator Ogerin (Og) at 2 uM. *P<0.05; Mann-Whitney test, n=5. FIG. 34C: Medium acidification reduced transendothelial resistance (TER), indicative of disruption of EC barrier function.

U87 spheroids = test: GBM spheroid assay; assay type: cell-based, human
Experimental: One thousand cells per well were plated in an ultra-low attachment, round-bottomed, 96-well plate, and spheroids were allowed to form for 3 days. Wells were then exposed to concentrations of vehicle, OGM2 or TMZ or a combination for 3 days. Spheroids were imaged in brightfield at 10× using z-stacks that were collapsed into z-projections in the Gen5 software using the LionheartFx (BioTek™). Automated measurements of the spheroid area were obtained using Gen5 software.
Tumor spheroid cultures are a more physiological model of tumor growth than typical 2D cell culture. Temozolomide sensitive U87 (FIG. 20A) and Temozolomide insensitive U138 (FIG. 20B) glioblastoma cell lines were plated in low attachment round bottom 96-well plates and allowed to form tumor spheroids for 3 days (T0). At T0, spheroids were imaged using Lionheart™ (HCS) High-Content Imaging Systems (Biotek™) and then were exposed to increasing doses of either Temozolomide or OGM2. After 5 days of treatment the spheroids were imaged again (T5). The size (area) of the spheroids after 5 days of treatment was quantified, and the average size of the spheroids at TO is depicted in red.
A GPR68-positive allosteric modulator, Ogerin, was tested. U87glioblastoma cells were plated in low attachment round bottom 96-well plates and allowed to form tumor spheroids for 3 days (TO). These spheroids were treated with Vehicle (DMSO), 10 μM/20 μM Ogerin or 10 μM/20 μM Ogremorphin-2 (OGM2). The spheroids were placed in the Lionheart™ HCS equipped with environmental control (5% CO2 at 37° C.) and imaged every 12 hours.
Spheroids were formed over 3 days using low attachment 96-well round bottom plates and then treated with DMSO or OGM2 in either pH 8 buffered media or pH 6.2 buffered media and grown for 3 days. The size (area) of spheroids was measured in relative area units. […] This increase in growth was abrogated by OGM2.

U87 glioblastoma cells = test: Acid-induced calcium flux in U87 cells; assay type: cell-based, human; details: medium shifted from pH 7.8 to 6.4
Text: GPR68 is known to signal through Gq which results in a calcium flux out of the Endoplasmic reticulum. U87 glioblastoma cells were stained, using a calcium-sensitive vital dye Fluo-8, and stimulated with acidification of the media to pH6.4. The cells respond to the acidification with a burst of calcium release, this is inhibited by OGM2.
To determine if GBM cells respond to their own acidic extracellular milieu as a form of autocrine signaling, calcium release in response to acidification was measured. GPR68 is known to couple to the Gq subunit, which acts to release calcium from the ER in a PLC dependent pathway. The medium was shifted from pH 7.8 to 6.4, which triggered a rapid and robust calcium flux, as measured by the fluorescence intensity of calcium-sensitive dye Cal520-AM. This calcium flux was blocked by OGM2 and PLC inhibitor U73122. FIG. 50A, FIG. 50B, FIG. 50C and FIG. 50D.

`CCN(c1nc(N)c(C(=O)NC(=N)N)nc1Cl)C(C)C` [EIPA, reference compound] was tested, and the migration (A2058) was “inhibited migration”, the migration (WM115) was “inhibited migration” and the migration (MeWo) was “not”.
In the case of `CCOc1ccccc1-n1c(C(C)N2CCN(C(=O)COc3ccc(Cl)cc3)CC2)nc2ccccc2c1=O` (centres unmarked) [erastin, reference compound], the “HEK293 cell viability / survival” value (HEK293) is reported as “dramatically reduced HEK293 cell survival”.
`Nc1nc(NCc2ccccc2)nc(-c2ccccc2CO)n1` [Ogerin, reference compound] was tested, and the “acidic media (pH 6.5)-induced TNFα, VCAM1 and ICAM1 expression” value (endothelial cell (EC)) was “augmented” and the spheroid growth rate (U87 spheroids) was “promoted U87 spheroids growth rate”.
For `COc1ccc2c(c1)CC[C@@H]1[C@@H]2CC[C@]2(C)[C@@H](NCCCCCCN3C(=O)C=CC3=O)CC[C@@H]12` [Compound U73122], the acid-induced calcium flux (U87 glioblastoma cells) was “blocked”.
For `CCc1nn2c(C)cc(C)nc2c1Cc1ccc(-c2nnc(C3CCNCC3)o2)cc1` [NE52QQ, reference compound], the acid-induced calcium flux (U87 glioblastoma cells) was “not significant”.
